Measurements: PMC8274517, “Diaryl azo derivatives as anti-diabetic and antimicrobial agents: synthesis, in vitro, kinetic and docking studies” (Journal of Enzyme Inhibition and Medicinal Chemistry, 2021)
pKi: −log10 of the molar value. Values after ≈ are worked out from the molar mass of the structure shown. “Also recorded” adds a separate entry of the source.

Key:
α-glucosidase [1] = test: In vitro α-glucosidase inhibition assay (pNPG substrate); assay type: biochemical, Saccharomyces Cerevisiae; details: for IC50: means ± SEM of triplicate
Protocol: The α-glucosidase inhibition assay was performed as described previously. In summary, the stock solution of the enzyme from Saccharomyces Cerevisiae (0.2 U/mL) was prepared in 0.05 M sodium phosphate buffer pH 6.8. […] After incubation, 10 µL of the substrate, p-nitrophenyl α-D-glucopyranoside (pNPG, 5 mM solution in 0.05 M phosphate buffer) was added to the aboveprepared mixture and incubated again under the same experimental conditions. The reaction was stopped with the addition of 0.1 M Na2CO3 and OD405 was taken by a 96-well ELISA reader. The experiment was performed in triplicate.

α-glucosidase [2] = test: Kinetic analysis and inhibition mechanism of α-glucosidase inhibition; assay type: biochemical, Saccharomyces Cerevisiae
Protocol: The potential inhibitor with concentrations 0.00, 0.062, 0.125, 0.25, 0.5 mM was selected for kinetic studies. The substrate (pNPG) concentration was optimised from 5 to 40 mM in all kinetic studies. Pre-incubation and measurement time was the same as discussed in α-glucosidase inhibition assay. The assay was continuously monitored at 405 nm for 5 min at 30 s intervals in the microplate reader after the addition of the enzyme. The inhibition type on the enzyme was assayed by Lineweaver–Burk plots of the inverse of velocities (1/V) versus the inverse of substrate concentration 1/[S] mM^−1, and the inhibition constant Ki was determined by two ways (Dixon plot of 1/V versus inhibitor concentrations) as well as secondary replot of slope versus inhibitor concentrations from Lineweaver–Burk plot.
The plot of the remaining enzyme activity versus the concentrations of the enzyme at different inhibitor concentrations (0.00, 0.062, 0.125, 0.25 and 0.5 mM) was calculated.

E. coli = test: Antibacterial activity, minimum inhibitory concentration; assay type: cell-based; design: key: R: resistant; S: sensitive
Protocol: (§1) The prepared azo derivatives were screened for their antibacterial activity against six bacterial strains obtained from hospital isolates i.e. gram positive (S. aureus, S. aureus (DR)) and gram-negative (E. coli, P. aeruginosa, P. aeruginosa (DR), P. vulgaris). All the strains were confirmed by biochemical identification and drug susceptibility methods. The antibacterial evaluation was done by agar disc diffusion method[39]^,[40] and MIC was determined. In summary, a 48-h old inoculum having ∼0.48 OD600, of the above-mentioned bacterial strains was spread on the solidified trypticase soy agar media and Whatman no. 1 filter paper discs (5 mm in diameter) soaked with the title compounds (10 µL/disc of 10 mg/mL) were placed on the plates. Ampicillin and moxifloxacin were used as positive controls and DMSO as negative control respectively.

P. aeruginosa (DR) = test: as above; assay type: cell-based; design: key: R: resistant; S: sensitive
Protocol: as §1

P. aeruginosa (DS) = test: as above; assay type: cell-based; design: key: R: resistant; S: sensitive
Protocol: as §1

P. vulgaris = test: as above; assay type: cell-based; design: key: R: resistant; S: sensitive
Protocol: as §1

S. aureus (DR) = test: as above; assay type: cell-based; design: key: R: resistant; S: sensitive
Protocol: as §1

S. aureus (DS) [3] = test: as above; assay type: cell-based; design: key: R: resistant; S: sensitive
Protocol: as §1

S. aureus (DS) [4] = test: Antibiofilm assay (crystal violet); assay type: cell-based; details: 0.5 mg/mL
Protocol: The antibiofilm activity of the synthesised azo derivatives was assessed by microtitre plate-based crystal violet method[44] against respective bacterial strains i.e. gram-positive (S. aureus, S. aureus (DR)) and gram-negative (P. aeruginosa, P. aeruginosa (DR)). In brief, 10 µL bacterial suspension, 100 µL trypticase soy broth and 10 µL (10 mg/mL) of test compounds were added in the wells in duplicates and incubated at 37 °C overnight. Ampicillin and moxifloxacin were used as positive controls. After the aspiration of planktonic cells, the biofilm was fixed with 99% methanol. The wells were then washed with 0.1 M sterile PBS (pH = 6.9) thrice and air-dried. Then, 200 µL of crystal violet solution (2%) was added to all wells. After 15 min, the excess of the crystal violet dye was removed and the wells were washed again with PBS. Then, the cell-bound crystal violet was dissolved in 33% acetic acid. The biofilm growth was quantified in terms of OD575 nm using an ELISA plate reader and biofilm hydrolysis was calculated by % inhibition formula.

[5] = test system: screened pathogens (S. aureus, P. aeruginosa, E. coli and P. vulgaris); test: Antibacterial activity, average MIC over screened pathogens; assay type: cell-based
Protocol: as §1, with “All the strains were confirmed by biochemical identification and drug susceptibility methods.” left out, “plates.” for “plates. Ampicillin and moxifloxacin were used as positive controls and DMSO as negative control respectively.”

Compound | % Inhibition (α-glucosidase [1]; 15.62 µg/mL) [%] | % Inhibition (α-glucosidase [1]; 31.2 µg/mL) [%] | % Inhibition (α-glucosidase [1]; 125 µg/mL) [%] | % Inhibition (α-glucosidase [1]; 250 µg/mL) [%] | IC50 (α-glucosidase [1]) [µg/mL] | Minimum inhibitory concentration: sensitive/resistant (E. coli; 125 µg/200 µL) | Minimum inhibitory concentration: sensitive/resistant (E. coli; 250 µg/200 µL) | Minimum inhibitory concentration: sensitive/resistant (P. aeruginosa (DR); 125 µg/200 µL) | Minimum inhibitory concentration: sensitive/resistant (P. aeruginosa (DR); 250 µg/200 µL) | Minimum inhibitory concentration: sensitive/resistant (P. aeruginosa (DS); 125 µg/200 µL) | Minimum inhibitory concentration: sensitive/resistant (P. aeruginosa (DS); 250 µg/200 µL) | Minimum inhibitory concentration: sensitive/resistant (P. vulgaris; 125 µg/200 µL) | Minimum inhibitory concentration: sensitive/resistant (P. vulgaris; 250 µg/200 µL) | Minimum inhibitory concentration: sensitive/resistant (S. aureus (DR); 125 µg/200 µL) | Minimum inhibitory concentration: sensitive/resistant (S. aureus (DR); 250 µg/200 µL) | Minimum inhibitory concentration: sensitive/resistant (S. aureus (DS) [3]; 125 µg/200 µL) | Minimum inhibitory concentration: sensitive/resistant (S. aureus (DS) [3]; 250 µg/200 µL) | biofilm inhibition (S. aureus (DS) [4]) | MIC (average value) [5] [µg/200 µL] | also measured
O=[N+]([O-])c1ccc(/N=N/c2ccc(O)cc2O)cc1 [TR-1, (E)-4-((4-nitrophenyl)diazenyl)benzene-1,3-diol] | 49 | 68 | 88 | 95 | 15.70 ± 1.3 (≈ 60.6 µM) | S | S | S | S | R | R | S | S | R | R | S | S | greater than 70% | 125 | pKi (α-glucosidase [2]; EI dissociation constant, Dixon plot and secondary replot): 3.66; Inhibition type (α-glucosidase [2]; Lineweaver–Burk plot): Non-competitive; Km (α-glucosidase [2]; inhibitor dose 0.062 mM): 20 mM; Vmax (α-glucosidase [2]; inhibitor dose 0.062 mM): 0.166 ΔA/S; Km (α-glucosidase [2]; inhibitor dose 0.125 mM): 20 mM; Vmax (α-glucosidase [2]; inhibitor dose 0.125 mM): 0.125 ΔA/S; Km (α-glucosidase [2]; inhibitor dose 0.25 mM): 20 mM; Vmax (α-glucosidase [2]; inhibitor dose 0.25 mM): 0.090 ΔA/S; Km (α-glucosidase [2]; inhibitor dose 0.50 mM): 20 mM; Vmax (α-glucosidase [2]; inhibitor dose 0.50 mM): 0.071 ΔA/S; Inhibition (reversibility) (α-glucosidase [2]; remaining enzyme activity versus enzyme concentration): reversibly; also recorded: reversible
O=[N+]([O-])c1ccc(/N=N/c2ccc(O)c3ccccc23)cc1 [TR-2, (E)-4-((4-nitrophenyl)diazenyl)naphthalen-1-ol] | 16 | 30 | 55 | 60 | 110.2 ± 7.8 (≈ 376 µM) | R | S | R | R | R | S | R | R | S | S | R | R | – | – | –
O=[N+]([O-])c1ccc(/N=N/c2c(O)ccc3ccccc23)cc1 [TR-3, (E)-1-((4-nitrophenyl)diazenyl)naphthalen-2-ol] | 12 | 25 | 54 | – | 116.9 ± 8.6 (≈ 399 µM) | R | R | R | R | R | S | R | R | R | R | R | R | greater than 70% | – | melting point: 245 to 252 °C
(E)-4-(p-tolyldiazenyl)benzene-1,3-diol [TR-6] | 22 | 38 | 63 | 87 | 53.7 ± 3.2 | R | S | R | R | S | S | S | S | S | S | S | S | – | 125 | –
(E)-4-(p-tolyldiazenyl)naphthalen-1-ol [TR-4] | 7 | 13 | 35 | 43 | – | R | R | S | S | S | S | S | S | S | S | S | S | – | 125 | –
